The test system of test [1] is twitch responses of the extensor digitorum of the foot (peroneal nerve stimulation). The test is described as follows: Spontaneous recovery versus reversal of neuromuscular blockade by cysteine in monkeys. The format is in vivo, rhesus monkey (Macaca mulatta). Conditions: Table 1; reversal of the blockade by cysteine. As for the experimental part:
(§1) Selected NMBA compounds were tested as described in PCT/US2010/000796 application by an inventor herein, published as WO2010/107488, which is incorporated by reference, see pages 66-78. Dose-response curves for twitch blockade by test compounds were generated as described. […] Successive doses were separated by at least three estimated half lives beyond complete recovery of the previous dose to TOF of 110-120%, which is normal for these monkeys. Only the first one or two doses yielding 5 to 99% blockade were included from any single experiment for computation of dose-response data. Comparative studies of spontaneous recovery versus antagonism/reversal were done at least 3 estimated half-lives following dose-response studies. ED50 and ED95 were computed from the regression of log dose vs. the logit of percentage blockade of twitch.
(§2) On the day of each study, monkeys received ketamine (7-10 mg/kg i.m.) followed by tracheal intubation under topical anesthesia with 4% lidocaine. Ventilation was controlled at 10 mL/kg and 20 breaths/min with isoflurane (1.0-2.0%) and N2O/O2 (2:1 mixture). Ringers lactate was administered at ˜10 ml kg^−1 h^−1. Arterial pressure was monitored from a femoral, superficial tibial, or radial (22 gauge) cannula. Heart rate was measured by tachograph from the arterial pulse wave. Core temperature was kept at 36.5-38.0° C. by warming blankets. Electrocardiogram and pulse oximetry were monitored continuously.
(§3) Needle electrodes (25 gauge) transmitting square-wave pulses of 0.2 msec duration at supramaximal voltage which were generated by a Grass S-88 stimulator (Grass Instruments, Quincy, Mass.) were placed at the peroneal nerve at the knee to elicit twitch responses of the extensor digitorum of the foot at 0.15 Hz. A small slip (10-20%) of the tendon was dissected free under sterile technique and tied to a Grass FT 10 force transducer (Grass Instruments, Quincy, Mass.) at a baseline tension of 50 gm. Train-of four stimulation (TOF, 2 Hz for 2 sec) was interposed at appropriate points, especially 1-2 min prior to NMBA dosing and following recovery of twitch to 95% of baseline, where TOF was subsequently evaluated every 1-2 min.
Comparative studies of spontaneous recovery versus antagonism/reversal were done at least 3 estimated half-lives following dose-response studies.

Test [2] shares this test system. As to the kind of experiment: Neuromuscular blocking potency and duration: twitch blockade dose-response in anesthetized rhesus monkeys. The format is in vivo, rhesus monkey (Macaca mulatta). Conditions: for ED95: Macaca mulatta; for Duration (min ± SD): at the actual dose administered, injection to recovery of twitch to 95% of control. As for the experimental part:
as §1
Experiments were approved by the Institutional Animal Care and Use Committee of Weill Medical College of Cornell University (New York, N.Y.) and of Albany Medical College (Albany, N.Y.), where the studies were conducted. A colony of 10 adult male monkeys (Macaca mulatta) weighing 8-18 kg was studied at ˜6 week intervals. Animals were housed and cared for in accordance with the Guide for Care and Use of Laboratory Animals (National Research Council, Washington, D.C.). They were fed a standard Old World monkey diet, enriched with fruits and vegetables, and other dietary novelties and were followed throughout the study to verify normal health by physical examination, body weight, and clinical laboratory studies (Complete Blood Count, Blood Urea Nitrogen and creatinine, and liver function tests).
as §2, §3
Recordings of circulatory and neuromuscular data were made on a Grass 7B polygraph (Grass Instruments). A baseline period of 15-20 min was allowed for stabilization of recordings prior to dosing.^2
Dose-response curves for twitch blockade by gantacurium, CW 002, CW 011, cisatracurium, CW002-Cys, NB 938-69, NB 1064-81, NB 802-17 (CW 001), NB 832-65, and NB 1163-79, structures of which are all shown above, were generated as follows. […] Successive doses were separated by at least three estimated half lives beyond complete recovery of the previous dose to TOF of 110-120%, which is normal for these monkeys. Only the first one or two doses yielding 5 to 99% blockade were included from any single experiment for computation of dose-response data.
ED 50 and ED 95 were computed from the regression of log dose vs. the logit of percentage blockade of twitch.

Where [3] appears, read: Table 1, calculated dose for 95% block of twitch, monkeys, read-out: ED 95.
Setting [4] is: Table 3, dose 0.064 ± 0.010 (gantacurium) or 0.060 ± 0.012 mg/kg (CW1759-50).

Structures are written as SMILES. Like-named read-outs stand apart in the source and are kept apart here.

As for `COc1cc2c(cc1OC)[C@@H](Cc1cc(OC)c(OC)c(OC)c1)[N@+](C)(CCCOC(=O)/C(Cl)=C/C(=O)OCCC[N+]1(Cc3cc(OC)c(OC)c(OC)c3)CCCC1)CC2` [Compound 1326-69], in test [1], the “Reversibility (Cysteine)” value is given as “Yes”. For the same molecule, the ED95 in test [2] (setting [3]) is 0.11 mg/kg. Further, the “Duration (min ± SD)” value in test [2] (Table 1) amounted to 4.5 ± 1.8 min.
For the molecule `COc1cc2c(cc1OC)[C@@H](Cc1cc(OC)c(OC)c(OC)c1)[N@+](C)(CCCOC(=O)/C(Cl)=C/C(=O)OCCC[N+]1(Cc3cc(OC)c(OC)c(OC)c3)CCCCC1)CC2` [Compound 1343-05], the “Reversibility (Cysteine)” value in test [1] is reported as “Yes”. In test [2], this molecule had an ED95 of 0.07 mg/kg. For the same molecule, the “Duration (min ± SD)” value in test [2] (Table 1) was 6.7 ± 2.1 min.
Taken in the same sequence, the figures for `COc1ccc(C[C@@H]2c3cc(OC)c(OC)cc3CC[N@@+]2(C)CCCOC(=O)/C=C\C(=O)OCCC[N+]2(Cc3cc(OC)c(OC)c(OC)c3)CCCC2)cc1OC` [Compound 1343-13] were “Yes”, 0.06 mg/kg and 8.8 ± 2.6 min.
For `COc1ccc(C[C@@H]2c3cc(OC)c(OC)cc3CC[N@@+]2(C)CCCOC(=O)/C=C\C(=O)OCCC[N+]2(Cc3ccc(OC)c(OC)c3)CCCC2)cc1OC` [Compound 1390-80], in test [1], the “Reversibility (Cysteine)” value is reported as “Yes”. The ED95 in test [2] (setting [3]) is 0.07 mg/kg. In test [2] (Table 1), the “Duration (min ± SD)” value is given as 9.0 ± 2.1 min.
Regarding `COc1ccc(C[C@@H]2c3cc(OC)c(OC)cc3CC[N@@+]2(C)CCCOC(=O)/C=C\C(=O)OCCC[N+]2(Cc3ccc(OC)c(OC)c3OC)CCCC2)cc1OC` [Compound 1449-35], in test [1], the “Reversibility (Cysteine)” value is given as “Yes”. The molecule further had an ED95 in test [2] of 0.126 mg/kg. The “Duration (min ± SD)” value in test [2] (Table 1) is given as 5 min.
In the case of `COc1ccc(C[N+]2(CCCOC(=O)/C=C\C(=O)OCCC[N@+]3(C)CCc4cc(OC)c(OC)cc4[C@H]3Cc3ccc(OC)c(OC)c3)CCCC2)cc1` [Compound 1521-28], the “Reversibility (Cysteine)” value in test [1] is “Yes”. This molecule also had an ED95 in test [2] of 0.335 mg/kg. For the same molecule, the “Duration (min ± SD)” value in test [2] (Table 1) stood at 6.5 min.
Taken in the same sequence, the figures for `COc1ccc(C[C@@H]2c3cc(OC)c(OC)cc3CC[N@@+]2(C)CCCOC(=O)/C(Cl)=C/C(=O)OCCC[N+]2(Cc3ccc(OC)c(OC)c3)CCOCC2)cc1OC` [Compound 1521-74] were “Yes”, 0.16 mg/kg and 4.3 ± 1.1 min.
Taken in the same sequence, the figures for `COc1ccc(C[C@@H]2c3cc(OC)c(OC)cc3CC[N@@+]2(C)CCCOC(=O)/C=C\C(=O)OCCC[N+]2(Cc3ccc4c(c3)OCCO4)CCOCC2)cc1OC` [Compound 1521-78] were “Yes”, 0.05 mg/kg and 12.1 ± 2.1 min.
Taken in the same sequence, the figures for `COc1ccc(C[N+]2(CCCOC(=O)/C=C(\Cl)C(=O)OCCC[N@+]3(C)CCc4cc(OC)c(OC)cc4[C@H]3Cc3cc(OC)c(OC)c(OC)c3)CCOCC2)cc1OC` [Compound 1566-01] were “Yes”, 0.61 mg/kg and 8 min.
In the case of `COc1ccc(C[C@@H]2c3cc(OC)c(OC)cc3CC[N@@+]2(C)CCCOC(=O)/C(Cl)=C/C(=O)OCCC[N+]2(Cc3cc(OC)c(OC)c(OC)c3)CCOCC2)cc1OC` [Compound 1566-22], the “Reversibility (Cysteine)” value in test [1] is “Yes”. The molecule also had an ED95 in test [2] of 0.19 mg/kg. The “Duration (min ± SD)” value in test [2] (Table 1) is 3.7 ± 0.3 min.
In the case of `COc1cc2c(cc1OC)[C@@H](Cc1cc(OC)c(OC)c(OC)c1)[N@+](C)(CCCOC(=O)/C(Cl)=C/C(=O)OCCC[N+]1(Cc3ccc4c(c3)OCCO4)CCOCC1)CC2` [Compound 1598-46], the “Reversibility (Cysteine)” value in test [1] is recorded as “Yes”. In addition, the ED95 in test [2] came to 0.1 mg/kg. Moreover, the “Duration (min ± SD)” value in test [2] (Table 1) came to 6.8 ± 2.3 min.
With `COc1ccc(C[C@@H]2c3cc(OC)c(OC)cc3CC[N@@+]2(C)CCCOC(=O)/C=C\C(=O)OCCC[N+]2(Cc3ccc(OC)cc3)CCOCC2)cc1` [Compound 1625-05], the “Reversibility (Cysteine)” value in test [1] is “Yes”. The ED95 in test [2] turned out to be 0.09 mg/kg. For the same molecule, in test [2] (Table 1), the “Duration (min ± SD)” value is 6 min.
For the molecule `COc1ccc(C[C@@H]2c3cc(OC)c(OC)cc3CC[N@@+]2(C)CCCOC(=O)/C=C\C(=O)OCCC[N+]2(Cc3cc(OC)c(OC)c(OC)c3)CCOCC2)cc1` [Compound 1759-58], in test [1], the “Reversibility (Cysteine)” value is “Yes”. In test [2], this molecule returned an ED95 of 0.064 mg/kg. Moreover, the “Duration (min ± SD)” value in test [2] (Table 1) lay in the range of 6 to 8 min.
For `COc1ccc2c(c1)CC[N@@+](C)(CCCOC(=O)/C=C\C(=O)OCCC[N+]1(Cc3ccc(OC)c(OC)c3)CCOCC1)[C@@H]2Cc1ccc(OC)c(OC)c1` [Compound 1759-85], the “Reversibility (Cysteine)” value in test [1] is “Yes”. Also, the ED95 in test [2] (setting [3]) is 0.22 mg/kg. Further, the “Duration (min ± SD)” value in test [2] (Table 1) stood at 5.4 ± 1.3 min.
Regarding `COc1cc2c(cc1OC)[C@H](c1cc(OC)c(OC)c(OC)c1)[N@@+](C)(CCCOC(=O)/C=C(\Cl)C(=O)OCCC[N@+]1(C)CCc3cc(OC)c(OC)cc3[C@H]1Cc1cc(OC)c(OC)c(OC)c1)CC2` [Gantacurium, gantacurium, reference compound], in test [2] (setting [4]), the “Blockade (%)” value was found to be 99.2 ± 0.5%, the “Onset” value stood at 97.1 ± 11.7 s and the “Total Duration” value is given as 7.4 ± 1.9 min. The “ED95 in a control study” value in test [2] (rhesus monkeys, control study for comparison) was found to be 0.063 ± 0.0021 mg·kg.

The values are drawn from patent publication US9156826B2, “Asymmetrical reversible neuromuscular blocking agents of ultra-short, short, or intermediate duration” (Cornell University, priority 2012, dated 2015).
